Assay results reported in patent publication US12077503B2, “Substituted cyclic amides and their use as herbicides” (FMC CORPORATION, priority 2015, dated 2024).

What was measured:
Assay type in all cases: in vivo
[1] = test system: ragweed (common ragweed, Ambrosia elatior); test: Test A preemergence; conditions: Ambrosia artemisiifolia, pre-emergence, 240 h, preemergence, 0 to 100 scale where 0 is no effect and 100 is complete control, read-out: Ragweed plant response rating
Summary of the method: (§1)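 Preemergence soil spray on seeded pots or post-emergence spray on 1–2 leaf plants, in loam–sand blend. Greenhouse ~10 d. Visual rating 0–100 against untreated plants.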

[2] = test system: pigweed (Amaranthus retroflexus); test: Test A preemergence; conditions: Amaranthus retroflexus, pre-emergence, 240 h, preemergence, 0 to 100 scale where 0 is no effect and 100 is complete control, read-out: Pigweed plant response rating
[3] = test system: ryegrass, Italian (Italian ryegrass, Lolium multiflorum); test: Test A preemergence; conditions: Lolium multiflorum, pre-emergence, 240 h, preemergence, 0 to 100 scale where 0 is no effect and 100 is complete control, read-out: Ryegrass, Italian plant response rating
Summary of the method: as §1

[4] = test system: Kochia (Kochia scoparia); test: Test A preemergence; conditions: Bassia scoparia, pre-emergence, 240 h, preemergence, 0 to 100 scale where 0 is no effect and 100 is complete control, read-out: Kochia plant response rating
Summary of the method: as §1

[5] = test system: giant foxtail (Setaria faberii); test: Test A preemergence; conditions: Setaria faberi, pre-emergence, 240 h, preemergence, 0 to 100 scale where 0 is no effect and 100 is complete control, read-out: Foxtail, Giant plant response rating
Summary of the method: as §1

[6] = test system: barnyardgrass (Echinochloa crus-galli); test: Test A preemergence; conditions: Echinochloa crus-galli, pre-emergence, 240 h, preemergence, 0 to 100 scale where 0 is no effect and 100 is complete control, read-out: Barnyardgrass plant response rating
Summary of the method: as §1

[7] = test system: wheat (Triticum aestivum); test: Test A postemergence; conditions: Triticum aestivum, post-emergence, 240 h, postemergence
Summary of the method: as §1

[8] = test system: ragweed (common ragweed, Ambrosia elatior); test: Test A postemergence; conditions: Ambrosia artemisiifolia, post-emergence, 240 h, postemergence
Summary of the method: as §1

[9] = test system: pigweed (Amaranthus retroflexus); test: Test A postemergence; conditions: Amaranthus retroflexus, post-emergence, 240 h, postemergence
Summary of the method: as §1

[10] = test system: ryegrass, Italian (Italian ryegrass, Lolium multiflorum); test: Test A postemergence; conditions: Lolium multiflorum, post-emergence, 240 h, postemergence
Summary of the method: as §1

[11] = test system: blackgrass (Alopecurus myosuroides); test: Test A postemergence; conditions: Alopecurus myosuroides, post-emergence, 240 h, postemergence
Summary of the method: as §1

[12] = test system: Galium (catchweed bedstraw, Galium aparine); test: Test A postemergence; conditions: Galium, post-emergence, 240 h, postemergence
Summary of the method: as §1

[13] = test system: corn (Zea mays); test: Test A postemergence; conditions: Zea mays, post-emergence, 240 h, postemergence
Summary of the method: as §1

[14] = test system: Kochia (Kochia scoparia); test: Test A postemergence; conditions: Bassia scoparia, post-emergence, 240 h, postemergence
Summary of the method: as §1

[15] = test system: giant foxtail (Setaria faberii); test: Test A postemergence; conditions: Setaria faberi, post-emergence, 240 h, postemergence
Summary of the method: as §1

[16] = 125 g ai/ha, visual injury rating, approximately 10 d

COc1cc([C@H]2CN(C)C(=O)[C@@H]2C(=O)Nc2cccc(F)c2F)cc(OC)c1OC [Compound 1210]
100%: pest or weed control at 125 g/ha [5, 16] | pest or weed control at 500 g/ha ([5]; 500 g ai/ha) | pest or weed control at 500 g/ha ([6]; 500 g ai/ha)
10%: pest or weed control at 500 g/ha ([4]; 500 g ai/ha)
30%: pest or weed control at 125 g/ha ([10]; 125 g ai/ha, visual injury vs untreated controls after approx. 10 d, 0 = no effect, 100 = complete control, read-out: Ryegrass, Italian plant response rating (0 to 100 scale))
90%: pest or weed control at 125 g/ha [6, 16] | pest or weed control at 125 g/ha ([15]; 125 g ai/ha, visual injury vs untreated controls after approx. 10 d, 0 = no effect, 100 = complete control, read-out: Foxtail, Giant plant response rating (0 to 100 scale)) | pest or weed control at 500 g/ha ([15]; 500 g ai/ha, 0 to 100 scale, 0 is no effect, 100 is complete control, read-out: Foxtail, Giant plant response rating)
50%: pest or weed control at 500 g/ha ([3]; 500 g ai/ha) | pest or weed control at 500 g/ha ([11]; 500 g ai/ha, 0 to 100 scale, 0 is no effect, 100 is complete control, read-out: Blackgrass plant response rating) | plant injury at 500 g/ha ([13]; 500 g ai/ha, 0 to 100 scale, 0 is no effect, 100 is complete control, read-out: Corn plant response rating)
20%: pest or weed control at 125 g/ha [3, 16]
0%: pest or weed control at 125 g/ha [1, 16] | pest or weed control at 500 g/ha ([1]; 500 g ai/ha) | pest or weed control at 125 g/ha [2, 16] | pest or weed control at 500 g/ha ([2]; 500 g ai/ha) | pest or weed control at 125 g/ha [4, 16] | plant injury at 125 g/ha ([7]; 125 g ai/ha, visual injury vs untreated controls after approx. 10 d, 0 = no effect, 100 = complete control, read-out: Wheat plant response rating (0 to 100 scale)) | pest or weed control at 125 g/ha ([8]; 125 g ai/ha, visual injury vs untreated controls after approx. 10 d, 0 = no effect, 100 = complete control, read-out: Ragweed plant response rating (0 to 100 scale)) | pest or weed control at 500 g/ha ([8]; 500 g ai/ha, 0 to 100 scale, 0 is no effect, 100 is complete control, read-out: Ragweed plant response rating) | pest or weed control at 125 g/ha ([9]; 125 g ai/ha, visual injury vs untreated controls after approx. 10 d, 0 = no effect, 100 = complete control, read-out: Pigweed plant response rating (0 to 100 scale)) | pest or weed control at 500 g/ha ([9]; 500 g ai/ha, 0 to 100 scale, 0 is no effect, 100 is complete control, read-out: Pigweed plant response rating) | pest or weed control at 125 g/ha ([11]; 125 g ai/ha, visual injury vs untreated controls after approx. 10 d, 0 = no effect, 100 = complete control, read-out: Blackgrass plant response rating (0 to 100 scale)) | pest or weed control at 125 g/ha ([12]; 125 g ai/ha, visual injury vs untreated controls after approx. 10 d, 0 = no effect, 100 = complete control, read-out: Galium plant response rating (0 to 100 scale)) | pest or weed control at 500 g/ha ([12]; 500 g ai/ha, 0 to 100 scale, 0 is no effect, 100 is complete control, read-out: Galium plant response rating) | plant injury at 125 g/ha ([13]; 125 g ai/ha, visual injury vs untreated controls after approx. 10 d, 0 = no effect, 100 = complete control, read-out: Corn plant response rating (0 to 100 scale)) | pest or weed control at 125 g/ha ([14]; 125 g ai/ha, visual injury vs untreated controls after approx. 10 d, 0 = no effect, 100 = complete control, read-out: Kochia plant response rating (0 to 100 scale)) | pest or weed control at 500 g/ha ([14]; 500 g ai/ha, 0 to 100 scale, 0 is no effect, 100 is complete control, read-out: Kochia plant response rating)
60%: plant injury at 500 g/ha ([7]; 500 g ai/ha, 0 to 100 scale, 0 is no effect, 100 is complete control, read-out: Wheat plant response rating) | pest or weed control at 500 g/ha ([10]; 500 g ai/ha, 0 to 100 scale, 0 is no effect, 100 is complete control, read-out: Ryegrass, Italian plant response rating)
